This note sets out measurements from ChEMBL document CHEMBL3616391, “Fatty Acid Synthase (FASN) Inhibitors as Potential Treatment for Cancer, Obesity, and Liver Related Disorders” (ACS Med Chem Lett, 2015).

What is called IC50 is the concentration needed to halve the response being measured.

A value given as a limit tells only on which side of the number the result lay.

For one assay, the system named is LNCaP. Put plainly: Antiproliferative activity against human LNCAP cells in lipid reduced medium. The format is functional, cell-based.
In the next assay the test system is PC-3M. Put plainly: Antiproliferative activity against human PC3M cells expressing Luc-C6 in lipid reduced medium. The format is functional, cell-based.
A further assay deals with Fatty acid synthase (Homo sapiens, UniProt P49327). In words: Inhibition of fatty acid synthase keto-reductase domain (unknown origin).
Chain of Fatty acid synthase (P49327 whole entry, the tested form may be a part): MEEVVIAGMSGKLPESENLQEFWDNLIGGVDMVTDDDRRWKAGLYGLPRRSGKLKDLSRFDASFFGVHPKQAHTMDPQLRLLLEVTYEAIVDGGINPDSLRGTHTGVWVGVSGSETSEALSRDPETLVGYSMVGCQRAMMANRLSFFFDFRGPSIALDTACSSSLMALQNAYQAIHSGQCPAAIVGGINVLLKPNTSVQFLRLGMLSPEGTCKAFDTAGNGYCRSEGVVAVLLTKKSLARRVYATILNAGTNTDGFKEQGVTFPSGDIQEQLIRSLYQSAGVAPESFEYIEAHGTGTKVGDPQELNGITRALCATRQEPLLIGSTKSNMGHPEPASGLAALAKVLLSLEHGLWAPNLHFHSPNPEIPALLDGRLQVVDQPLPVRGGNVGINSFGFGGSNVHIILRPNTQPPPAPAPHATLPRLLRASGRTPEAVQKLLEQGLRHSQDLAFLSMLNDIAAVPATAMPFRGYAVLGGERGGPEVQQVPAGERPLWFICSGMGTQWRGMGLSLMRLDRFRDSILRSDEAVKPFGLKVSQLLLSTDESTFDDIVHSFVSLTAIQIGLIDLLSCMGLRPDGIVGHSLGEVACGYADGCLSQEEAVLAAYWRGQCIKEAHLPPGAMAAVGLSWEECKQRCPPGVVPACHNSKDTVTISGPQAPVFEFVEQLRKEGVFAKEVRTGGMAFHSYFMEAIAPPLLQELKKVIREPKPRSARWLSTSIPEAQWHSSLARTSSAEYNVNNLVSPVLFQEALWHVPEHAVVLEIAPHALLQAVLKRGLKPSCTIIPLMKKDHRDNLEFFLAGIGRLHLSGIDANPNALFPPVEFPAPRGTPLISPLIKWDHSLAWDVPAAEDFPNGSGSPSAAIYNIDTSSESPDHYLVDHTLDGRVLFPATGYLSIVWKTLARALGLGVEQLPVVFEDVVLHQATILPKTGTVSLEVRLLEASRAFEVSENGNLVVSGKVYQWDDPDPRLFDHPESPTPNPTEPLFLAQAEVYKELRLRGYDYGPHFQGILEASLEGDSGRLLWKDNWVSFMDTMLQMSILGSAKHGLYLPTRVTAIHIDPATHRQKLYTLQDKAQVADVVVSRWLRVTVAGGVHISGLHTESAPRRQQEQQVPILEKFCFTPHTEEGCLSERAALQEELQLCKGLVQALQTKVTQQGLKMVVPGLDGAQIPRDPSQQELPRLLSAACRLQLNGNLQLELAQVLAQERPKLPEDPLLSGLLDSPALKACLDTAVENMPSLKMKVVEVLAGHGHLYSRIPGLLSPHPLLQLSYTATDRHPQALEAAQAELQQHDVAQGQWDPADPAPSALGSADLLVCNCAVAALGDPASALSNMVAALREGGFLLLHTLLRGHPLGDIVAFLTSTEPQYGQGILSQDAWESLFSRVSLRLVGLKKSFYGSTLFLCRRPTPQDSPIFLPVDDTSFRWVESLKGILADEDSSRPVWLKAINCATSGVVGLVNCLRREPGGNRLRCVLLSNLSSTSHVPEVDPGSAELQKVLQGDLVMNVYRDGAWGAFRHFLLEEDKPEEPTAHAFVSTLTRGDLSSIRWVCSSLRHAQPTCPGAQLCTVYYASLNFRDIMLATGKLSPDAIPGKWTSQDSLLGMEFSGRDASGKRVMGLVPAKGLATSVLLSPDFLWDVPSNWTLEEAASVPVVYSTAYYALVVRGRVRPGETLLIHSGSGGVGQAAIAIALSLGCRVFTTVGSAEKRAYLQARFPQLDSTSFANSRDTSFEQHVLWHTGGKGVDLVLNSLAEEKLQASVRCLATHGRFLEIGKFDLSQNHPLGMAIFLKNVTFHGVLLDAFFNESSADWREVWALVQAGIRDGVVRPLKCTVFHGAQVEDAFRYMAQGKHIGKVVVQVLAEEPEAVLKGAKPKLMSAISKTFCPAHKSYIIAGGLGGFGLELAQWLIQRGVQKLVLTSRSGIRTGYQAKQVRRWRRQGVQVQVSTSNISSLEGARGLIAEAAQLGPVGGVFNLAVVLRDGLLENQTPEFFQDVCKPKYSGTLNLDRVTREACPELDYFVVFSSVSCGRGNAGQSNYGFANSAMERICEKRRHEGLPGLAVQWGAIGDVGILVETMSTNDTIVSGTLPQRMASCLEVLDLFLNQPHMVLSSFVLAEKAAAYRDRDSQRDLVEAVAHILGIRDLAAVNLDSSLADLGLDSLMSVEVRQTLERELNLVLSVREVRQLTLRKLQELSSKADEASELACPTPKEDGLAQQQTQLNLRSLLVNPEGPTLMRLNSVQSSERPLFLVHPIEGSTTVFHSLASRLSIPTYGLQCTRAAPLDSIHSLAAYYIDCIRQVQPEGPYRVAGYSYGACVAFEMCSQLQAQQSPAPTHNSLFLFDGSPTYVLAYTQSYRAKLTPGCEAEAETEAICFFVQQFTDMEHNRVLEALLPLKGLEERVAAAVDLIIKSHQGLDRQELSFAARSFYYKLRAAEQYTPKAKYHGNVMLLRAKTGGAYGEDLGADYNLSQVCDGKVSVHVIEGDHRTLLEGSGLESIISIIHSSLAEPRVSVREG
Assay [1] has as its system A2780. In words: Antiproliferative activity against human A2780 cells in lipid reduced medium in presence of palmitate. The assay is classed as functional, cell-based.
For assay [2], the system named is A2780. Put plainly: Antiproliferative activity against human A2780 cells in lipid reduced medium in absence of palmitate. The format is functional, cell-based.

`Cn1ncc2cc(-c3ccc(C4=NC(C)(C)C(=O)N4C[C@@H]4CCN(C(=O)C5CC5)C4)c(F)c3)ccc21`: the IC50 in the assay with LNCaP was 0.724 µM; in the assay with PC-3M it was 0.132 µM.
As for `CC1(C)N=C(c2ccc(-c3ccc4cccnc4c3)cc2)N(C[C@@H]2CCN(C(=O)C3CC3)C2)C1=O`, the IC50 against Fatty acid synthase is 0.0562 µM; with A2780 [1], greater than 10 µM; with A2780 [2], 0.0759 µM; in the assay with LNCaP, 0.219 µM; in the assay with PC-3M, 0.0537 µM.
For the compound `Cn1cc(-c2ccc(-c3ccc(C4=NC(C)(C)C(=O)N4C[C@@H]4CCN(C(=O)C5(O)CC5)C4)c(F)c3)cc2)cn1`, the results for the IC50 with A2780 [1] and in the assay with A2780 [2] were greater than 10 µM and 0.00537 µM, respectively.
Turning to `CC1(C)N=C(c2ccc(-c3ccc4cccc(F)c4c3)cc2)N(CC2CN(C(=O)C3CC3)C2)C1=O`, the values for the IC50 in the assay on A2780 [1], with A2780 [2] and in the assay with LNCaP were 5.62 µM, 0.468 µM and 2.04 µM, respectively.
As for `CC1(C)N=C(c2ccc(-c3ccc4[nH]ccc4c3)cc2)N(C[C@@H]2CCN(C(=O)C3CC3)C2)C1=O`, the IC50 in the assay with A2780 [1] is greater than 10 µM; in the assay on A2780 [2], 0.0741 µM.
The corresponding values for `CC1(C)N=C(c2ccc(-c3nc4ccccc4[nH]3)cc2)N(C[C@@H]2CCN(C(=O)C3CC3)C2)C1=O` are greater than 10 µM and 9.33 µM.
